Experimental data published in US20230180809A1, “NUTRACEUTIC COMPOSITION COMPRISING LIMONENE AND A DRY EXTRACT OF COCOA FIBRE FOR THE TREATMENT OF OBESITY” (TARGETING GUT DISEASE SRL, priority 2020, published 2023).

System: obese mice
Experiment: slimming effect of limonene in obese mice
Type: in vivo
Conditions: obese mice after 12 weeks of high lipid diet, feed containing 0.5% of limonene ad libitum for 2 weeks
Method: Animal feed having a concentration of 0.5% in limonene corresponding to a daily dose of 0.6 g/kg of weight in humans. After 12 weeks of high lipid diet that caused obesity, mice were administered ad libitum, animal feed containing 0.5% of limonene for 2 weeks.

Question: For `C=C(C)[C@H]1CC=C(C)CC1` [limonene], which “accumulation of lipids in the cells” value is on record?
Answer: preventing the accumulation of lipids

Question: And the “reduction of serum triglycerides” value?
Answer: up to 47%

Question: And the “size of both white and brown adipocytes” value?
Answer: decreasing the size
